Measurements reported in ChEMBL document CHEMBL1208684 (Eur J Med Chem, 2010).
Calls of active or inactive are those of the source. The calls are words filed in the database; no cut-off is given here.

Assays:
K562 = test: Antiproliferative activity against human K562 cells after 48 hrs; assay type: functional, cell-based; settings: K562, 48 h
Tubulin = Tubulin (Sus scrofa, UniProt P02554+P02550); test: Inhibition of pig brain tubulin polymerization after 30 mins by turbidimetry
PtK2 = test: Disruption of microtubule network in rat kangaroo PtK2 cells at 5 uM after 1 hr by immunofluorescence microscopic analysis; assay type: functional, cell-based; settings: Potorous tridactylus
[1] = Antiproliferative activity against multi drug-resistant rat LT12 cells after 48 hrs by XTT assay; assay type: functional, cell-based; settings: LT12, 48 h
L1210 [2] = test: Antiproliferative activity against mouse L1210 cells after 48 hrs by XTT assay; assay type: functional, cell-based; settings: L1210, 48 h
RKO [3] = test: Antiproliferative activity against human RKO cells after 48 hrs by XTT assay; assay type: functional, cell-based
P388 [4] = test: Antiproliferative activity against adriamycin-resistant mouse P388 cells after 48 hrs by XTT assay; assay type: functional, cell-based; settings: P388, 48 h
[5] = Antiproliferative activity against rat LT12 cells after 48 hrs by XTT assay; assay type: functional, cell-based; settings: LT12, 48 h
[6] = Cell cycle arrest in human KB/HeLa cells assessed as accumulation at G2/M phase after 24 hrs using propidium iodide staining by FACS analysis; assay type: functional, cell-based
NCI-H460 = test: Antiproliferative activity against human NCI-H460 cells after 48 hrs by XTT assay; assay type: functional, cell-based; settings: NCI-H460, 48 h
[7] = Displacement of [3H]paclitaxel from biotin-labeled tubulin after 2 hrs by scintillation proximity assay
Tubulin (Sus scrofa) = Tubulin (Sus scrofa) (UniProt P02554+P02550); test: Ratio of compound IC50 to colchicine IC50 for inhibition of pig brain tubulin polymerization
Chain of Tubulin (Sus scrofa) (P02550 whole entry, looked up): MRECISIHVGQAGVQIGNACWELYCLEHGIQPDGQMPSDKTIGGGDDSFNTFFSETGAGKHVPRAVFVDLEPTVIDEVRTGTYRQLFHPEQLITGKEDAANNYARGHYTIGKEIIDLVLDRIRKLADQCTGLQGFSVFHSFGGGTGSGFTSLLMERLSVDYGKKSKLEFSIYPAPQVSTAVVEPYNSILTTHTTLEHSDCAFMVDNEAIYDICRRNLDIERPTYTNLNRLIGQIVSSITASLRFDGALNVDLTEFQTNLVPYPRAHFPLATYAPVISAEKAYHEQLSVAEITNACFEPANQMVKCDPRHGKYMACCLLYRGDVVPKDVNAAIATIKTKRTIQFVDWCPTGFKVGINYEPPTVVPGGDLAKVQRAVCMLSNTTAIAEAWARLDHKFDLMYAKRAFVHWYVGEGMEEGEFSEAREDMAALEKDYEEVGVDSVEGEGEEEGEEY
Chain of Tubulin (Sus scrofa) (P02554 whole entry, looked up): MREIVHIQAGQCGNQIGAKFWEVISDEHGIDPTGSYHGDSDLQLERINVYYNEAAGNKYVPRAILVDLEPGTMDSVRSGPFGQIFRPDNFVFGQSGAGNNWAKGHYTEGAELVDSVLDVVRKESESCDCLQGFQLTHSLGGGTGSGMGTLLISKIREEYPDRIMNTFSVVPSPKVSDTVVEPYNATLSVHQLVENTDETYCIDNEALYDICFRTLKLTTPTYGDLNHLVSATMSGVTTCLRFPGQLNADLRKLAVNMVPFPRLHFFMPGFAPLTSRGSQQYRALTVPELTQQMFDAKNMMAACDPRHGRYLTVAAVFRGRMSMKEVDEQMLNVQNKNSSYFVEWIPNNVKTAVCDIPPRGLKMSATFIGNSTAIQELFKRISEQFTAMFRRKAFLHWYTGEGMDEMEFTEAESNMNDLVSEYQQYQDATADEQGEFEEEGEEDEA

[8] = Antiproliferative activity against human KB/HeLa cells after 48 hrs by XTT assay; assay type: functional, cell-based
SK-OV-3 = test: Antiproliferative activity against human SKOV3 cells after 48 hrs by XTT assay; assay type: functional, cell-based; settings: SK-OV-3, 48 h
L1210 [9] = test: Antiproliferative activity against vincristine-resistant mouse L1210 cells after 48 hrs by XTT assay; assay type: functional, cell-based; settings: L1210, 48 h
RKO [10] = test: Antiproliferative activity against human RKO cells expressing p27Kip1 after 48 hrs by XTT assay; assay type: functional, cell-based
[11] = Displacement of [3H]colchicine from biotin-labeled tubulin after 2 hrs by scintillation proximity assay
SF-268 = test: Antiproliferative activity against human SF268 cells after 48 hrs by XTT assay; assay type: functional, cell-based; settings: SF-268, 48 h
P388 [12] = test: Antiproliferative activity against mouse P388 cells after 48 hrs by XTT assay; assay type: functional, cell-based; settings: P388, 48 h

Compound	IC50 (K562) [nM]	IC50 (Tubulin) [nM]	also measured
O=C1c2cccc(Cl)c2C(Cc2ccccc2)c2cccc(Cl)c21 (configuration not stated)	> 15000	–	–
O=C1c2cccc(Cl)c2/C(=C/c2ccccc2)c2cccc(Cl)c21	> 30000	–	–
COc1cc(CC2c3cccc(Cl)c3C(=O)c3cccc(Cl)c32)cc(OC)c1OC (configuration not stated)	> 15000	–	–
COc1cc(C=C2c3cccc(O)c3C(=O)c3c(O)cccc32)cc(OC)c1OC	2600	> 10000	–
COc1ccc(CC2c3cccc(Cl)c3C(=O)c3cccc(Cl)c32)cc1O (configuration not stated)	5100	–	–
O=C1c2cccc(Cl)c2C(Cc2ccc([N+](=O)[O-])cc2)c2cccc(Cl)c21 (configuration not stated)	> 15000	–	–
CC(=O)O[C@H]1C(=O)[C@@]2(C)[C@H]([C@H](OC(=O)c3ccccc3)[C@]3(O)C[C@H](OC(=O)[C@H](O)[C@@H](NC(=O)c4ccccc4)c4ccccc4)C(C)=C1C3(C)C)[C@]1(OC(C)=O)CO[C@@H]1C[C@@H]2O [PACLITAXEL]	–	–	IC50 [1]: 400 nM; IC50 (P388 [4]): > 5000 nM; EC50 [6]: 49 nM; IC50 [8]: 10 nM; IC50 (L1210 [9]): > 5000 nM; IC50 (RKO [10]): > 3000 nM
COc1cccc(C=C2c3cccc(Cl)c3C(=O)c3c(Cl)cccc32)c1O	5000	> 2000	–
COc1cc(C=C2c3cccc(Cl)c3C(=O)c3c(Cl)cccc32)ccc1O	5000	6800	–
COc1cc(C=C2c3cccc(Cl)c3C(=O)c3c(Cl)cccc32)cc(OC)c1OC	10000	> 10000	–
COC(=O)Nc1nc2cc(C(=O)c3cccs3)ccc2[nH]1 [NOCODAZOLE]	–	–	IC50 [1]: 70 nM; IC50 [5]: 40 nM; EC50 [6]: 91 nM; IC50 [8]: 140 nM; IC50 (RKO [10]): > 10000 nM
COc1cccc(CC2c3cccc(Cl)c3C(=O)c3cccc(Cl)c32)c1 (configuration not stated)	> 15000	–	–
CC(=O)Oc1ccc(C(=O)/C=C2\c3cccc(Cl)c3C(=O)c3cccc(Cl)c32)cc1	3400	410	–
CC[C@]1(O)C[C@H]2CN(CCc3c([nH]c4ccccc34)[C@@](C(=O)OC)(c3cc4c(cc3OC)N(C=O)[C@H]3[C@@](O)(C(=O)OC)[C@H](OC(C)=O)[C@]5(CC)C=CCN6CC[C@]43[C@@H]65)C2)C1 [VINCRISTINE]	–	–	EC50 [6]: 2.4 nM
O=C1c2cccc(Cl)c2/C(=C\c2ccccc2)c2cccc(Cl)c21	> 30000	–	–
COc1cc(/C=C2\c3cccc(Cl)c3C(=O)c3cccc(Cl)c32)cc(OC)c1OC	18000	–	–
COc1ccc(CC2c3cccc(Cl)c3C(=O)c3cccc(Cl)c32)cc1 (configuration not stated)	13000	–	–
COc1ccc(CC2c3cccc(Cl)c3C(=O)c3c(Cl)cccc32)cc1	> 80000	> 2000	–
COc1ccc(/C=C2/c3cccc(Cl)c3C(=O)c3cccc(Cl)c32)c(OC)c1OC	17300	–	–
CC[C@]1(O)C[C@@H]2CN(CCc3c([nH]c4ccccc34)[C@@](C(=O)OC)(c3cc4c(cc3OC)N(C)[C@H]3[C@@](O)(C(N)=O)[C@H](O)[C@]5(CC)C=CCN6CC[C@]43[C@@H]65)C2)C1 [VINDESINE]	–	–	IC50 [1]: 260 nM; IC50 [5]: 1 nM; IC50 (L1210 [9]): > 5000 nM
O=C1c2cccc(Cl)c2C(Cc2ccc(Cl)cc2)c2cccc(Cl)c21 (configuration not stated)	> 15000	–	–
O=C1c2c(O)cccc2C(=Cc2ccc(O)c(O)c2)c2cccc(O)c21	2600	–	–
COc1cc2c(c(OC)c1OC)-c1ccc(OC)c(=O)cc1[C@@H](NC(C)=O)CC2 [COLCHICINE]	–	–	EC50 [6]: 14 nM; IC50 [8]: 30 nM; IC50 (RKO [10]): > 10000 nM

More lines, main results first:

IC50 (K562) [nM]	IC50 (Tubulin) [nM]	Compound	also measured
1900	–	O=C(/C=C1\c2cccc(Cl)c2C(=O)c2cccc(Cl)c21)c1ccc([N+](=O)[O-])cc1	–
1700	> 10000	O=C1c2c(O)cccc2C(=Cc2ccc([N+](=O)[O-])cc2)c2cccc(O)c21	–
230	360	COc1cc(C(=O)/C=C2\c3cccc(Cl)c3C(=O)c3cccc(Cl)c32)cc(OC)c1OC	Activity (PtK2): Active
270	380	COc1cc(/C=C2/c3cccc(Cl)c3C(=O)c3cccc(Cl)c32)ccc1O	–
290	1700	O=C(/C=C1\c2cccc(Cl)c2C(=O)c2cccc(Cl)c21)c1ccccc1	–
250	360	COc1ccc(C=C2c3cccc(Cl)c3C(=O)c3c(Cl)cccc32)cc1O	IC50 [1]: 290 nM; IC50 (L1210 [2]): 510 nM; IC50 (RKO [3]): 160 nM; IC50 (P388 [4]): 640 nM; IC50 [5]: 630 nM; EC50 [6]: 118 nM; IC50 (NCI-H460): 210 nM; Activity [7]: inactive; Ratio IC50 (Tubulin (Sus scrofa)): 4; IC50 [8]: 140 nM; IC50 (SK-OV-3): 140 nM; IC50 (L1210 [9]): 300 nM; IC50 (RKO [10]): > 9000 nM; IC50 [11]: 1380 nM; IC50 (SF-268): 170 nM; IC50 (P388 [12]): 390 nM
1600	1200	COc1ccc(CC2c3cccc(Cl)c3C(=O)c3c(Cl)cccc32)cc1O	–
2000	4000	COc1ccc(C=C2c3cccc(O)c3C(=O)c3c(O)cccc32)cc1	–
930	730	COc1ccc(C(=O)C=C2c3cccc(Cl)c3C(=O)c3c(Cl)cccc32)cc1	–
610	870	COc1ccc(C=C2c3cccc(Cl)c3C(=O)c3c(Cl)cccc32)cc1	–
2000	1660	COc1cc(C=C2c3cccc(Cl)c3C(=O)c3c(Cl)cccc32)cc(OC)c1O	–
2300	> 10000	O=C1c2c(O)cccc2C(=Cc2ccccc2)c2cccc(O)c21	–
210	420	COc1ccc(/C=C2\c3cccc(Cl)c3C(=O)c3cccc(Cl)c32)cc1O	–
100	360	COc1ccc(C=C2c3cccc(Cl)c3C(=O)c3c(Cl)cccc32)c(OC)c1O	IC50 [1]: 170 nM; IC50 (L1210 [2]): 350 nM; IC50 (RKO [3]): 160 nM; IC50 (P388 [4]): 460 nM; IC50 [5]: 370 nM; EC50 [6]: 111 nM; IC50 (NCI-H460): 170 nM; Activity [7]: inactive; Ratio IC50 (Tubulin (Sus scrofa)): 4; IC50 [8]: 130 nM; IC50 (SK-OV-3): 160 nM; IC50 (L1210 [9]): 230 nM; IC50 (RKO [10]): > 9000 nM; IC50 [11]: 1170 nM; IC50 (SF-268): 140 nM; IC50 (P388 [12]): 320 nM
720	1620	COc1cc(C(=O)C=C2c3cccc(Cl)c3C(=O)c3c(Cl)cccc32)cc(OC)c1OC	–
1700	510	O=C(/C=C1\c2cccc(Cl)c2C(=O)c2cccc(Cl)c21)c1ccc(Br)cc1	–
1420	> 2000	COc1ccc(C=C2c3cccc(OC)c3C(=O)c3c(OC)cccc32)cc1	–
1300	520	COc1ccc(/C=C2/c3cccc(Cl)c3C(=O)c3cccc(Cl)c32)cc1	–
500	1600	COc1ccc(C=C2c3cccc(Cl)c3C(=O)c3c(Cl)cccc32)c(O)c1	–
2000	> 10000	COc1ccc(C=C2c3cccc(O)c3C(=O)c3c(O)cccc32)cc1OC	–
220	530	COc1ccc(C(=O)/C=C2\c3cccc(Cl)c3C(=O)c3cccc(Cl)c32)cc1	–
240	690	COc1ccc(C(=O)/C=C2\c3cccc(Cl)c3C(=O)c3cccc(Cl)c32)cc1OC	–
1700	–	O=C1c2c(O)cccc2C(=Cc2ccc(C(F)(F)F)cc2)c2cccc(O)c21	–
1500	1930	COc1ccc(C=C2c3cccc(O)c3C(=O)c3c(O)cccc32)cc1O	–
2000	–	O=C1c2c(O)cccc2C(=Cc2ccc(O)cc2)c2cccc(O)c21	–
250	690	COc1cccc(C(=O)/C=C2\c3cccc(Cl)c3C(=O)c3cccc(Cl)c32)c1	–
1600	–	O=C(/C=C1\c2cccc(Cl)c2C(=O)c2cccc(Cl)c21)c1ccc(Cl)cc1	–
1400	690	COc1ccc(/C=C2\c3cccc(Cl)c3C(=O)c3cccc(Cl)c32)cc1	–
